Drawing on ChEMBL document CHEMBL1208781, “Identification of N-(2-(azepan-1-yl)-2-phenylethyl)-benzenesulfonamides as novel inhibitors of GlyT1” (Bioorg Med Chem Lett, 2010), this text covers Drug uptake, Kp and concentration for three molecules.

Holding throughout (assay type): ADME, organism-based
One data set concerns Brain. Briefly: Drug level in Sprague-Dawley rat brain at 2.5 umol/kg, sc after 1 hr. As to conditions: in vivo.
Data set [1] in a line: Drug level in brain to plasma in Sprague-Dawley rat at 2.5 umol/kg, sc after 1 hr.
Data set [2] is described as follows: Plasma concentration in Sprague-Dawley rat at 2.5 umol/kg, sc after 1 hr. The following applies: read-out: Drug uptake.

Molecule `COc1ccccc1C(CNS(=O)(=O)c1ccc(Cl)cc1)N1CCCCCC1` (centres undefined) returned a Drug uptake in the data set with Brain of 202 nmol/kg. For the same molecule, in data set [1], the Kp at 1 h was 1.9. Further, the concentration at 1 h in data set [2] worked out at 103 nM.
On to `COc1ccccc1C(CNS(=O)(=O)c1ccc(F)c(Cl)c1)N1CCCCCC1` (centres undefined), for which the Drug uptake with Brain turned out to be 168 nmol/kg. In addition, the Kp at 1 h in data set [1] came out at 1.6. Besides, in data set [2], the concentration at 1 h turned out to be 105 nM.
The matching figures for `COc1ccccc1C(CNS(=O)(=O)c1ccc(C(F)(F)F)cc1)N1CCCCCC1` (centres undefined): 154 nmol/kg, 2.1 and 72 nM.
